Here are results for 1 molecule from PubChem BioAssay (NCI).

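Interpolation was linear, between the two tested concentrations surrounding the appropriate level; five concentrations were tested over 48 hours in 96-well plates. TGI: total growth inhibition.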

This experiment relates to P388 leukemia. Put plainly: NCI tumour cell line growth inhibition, 48 h.

Take `CCc1ccccc1N1CCN(C(=O)c2cc(OC)c(OC)c(OC)c2)CC1`: the TGI turned out to be 0.367 µM.
